{
  "source": "paper PMC9738727",
  "about": "“Purification and Characterization of Novel Anti-MRSA Peptides Produced by Brevibacillus sp. SPR-20” (Molecules, 2022)",
  "key": {"S. aureus TISTR 517 [1]": {"test_system": "S. aureus TISTR 517", "experiment": "Proteolytic enzyme stability, remaining activity by agar well diffusion", "type": "in vitro ADME, Staphylococcus aureus", "conditions": "proteinase K, trypsin, α-chymotrypsin, both test strains", "method": "(§1) The antimicrobial activity was measured by an agar well diffusion test with some modified methods. In brief, single colonies of the tested strains were suspended in 0.85% NaCl, and then the OD at 625 nm was adjusted to 0.1. The cell suspensions were spread on MH agar, and the tested samples (100 μL) were introduced into each well before incubation at 37 °C for 24 h. Each experiment was performed in three independent replicates, and the inhibition zone was measured and expressed as mean ± SD.\nThe stability of the anti-MRSA peptide against several conditions was studied. […] The sensitivity of the peptide sample to proteolytic enzymes was investigated by incubating the sample with proteinase K, trypsin, and α-chymotrypsin (1 mg/mL) for 1 h. Surfactant compatibility of the substance was examined by incubating the sample with 1% SDS and 1% Triton X-100 for 1 h (AppliChem GmbH, Darmstadt, Germany). The acid and base hydrolysis property of the substance was assessed by pH adjustment to 2–14 for 1 h before the samples were neutralized to pH 7. […] The stability profiles were presented as the percentage of activity relative to the untreated condition (mean ± SD), and significant difference was determined by the Student’s t-test at a p-value < 0.05."}, "MRSA isolate 1096": {"test_system": "MRSA isolate 1096", "experiment": "microbe, parasite or virus in culture", "type": "cell-based, Staphylococcus aureus", "conditions": "isolate 1096, 24 h", "method": "(§2) The MIC and MBC of the purified peptides from SPR-20 were determined by broth microdilution assay following a standard guideline. S. aureus TISTR 517 and MRSA isolate 142, 1096, and 2468 as bacterial strains were cultured in MH agar at 37 °C for 18 h. […] The cells were then diluted to 5 × 10^6 CFU/mL using cation-adjusted Mueller Hinton broth (CAMHB). The diluted cell suspension (10 μL) was transferred to each well of a 96-well plate. The purified peptide in the total volume of 100 µL was added to each well to obtain the final concentrations between 0.5 and 64 µg/mL. The standard antibiotics (vancomycin and cefoxitin) (Sigma-Aldrich Co., St. Louis, MO, USA) and antibiotic-free samples were the positive and negative controls, respectively. CAMHB without tested bacteria was used as a blank. The 96-well plates were incubated at 37 °C for 24 h, and the experiment was performed in triplicate for each strain. […] Subsequently, 100 µL of each dilution was spread on MH agar and then incubated at 37 °C for 24 h."}, "[2]": {"test_system": "S. aureus TISTR 517 and MRSA strains", "experiment": "microbe, parasite or virus in culture", "type": "cell-based, Staphylococcus aureus", "conditions": "TISTR 517 and strains, 18 h", "method": "as §2"}, "MRSA isolate 2468 [3]": {"test_system": "MRSA isolate 2468", "experiment": "microbe, parasite or virus in culture", "type": "cell-based, Staphylococcus aureus", "conditions": "isolate 2468, 24 h", "method": "as §2"}, "MRSA isolate 142": {"test_system": "MRSA isolate 142", "experiment": "microbe, parasite or virus in culture", "type": "cell-based, Staphylococcus aureus", "conditions": "isolate 142, 24 h", "method": "as §2"}, "S. aureus TISTR 517 [4]": {"test_system": "S. aureus TISTR 517", "experiment": "microbe, parasite or virus in culture", "type": "cell-based, Staphylococcus aureus", "conditions": "TISTR 517, 24 h", "method": "as §2"}, "MRSA isolate 2468 [5]": {"test_system": "MRSA isolate 2468", "experiment": "microbe, parasite or virus in culture", "type": "cell-based, Staphylococcus aureus", "conditions": "P1 at 15 µg/mL, from vancomycin standard curve", "method": "as §1\n(§3) The agar well diffusion test was performed in triplicate for potency determination, using S. aureus TISTR 517 and MRSA isolate 2468 as the tested bacteria. […] The remaining standard and sample solutions were transferred to the other 3 wells. The plates were incubated at 37 °C for 18 h."}, "S. aureus TISTR 517 [6]": {"test_system": "S. aureus TISTR 517", "experiment": "microbe, parasite or virus in culture", "type": "cell-based, Staphylococcus aureus", "conditions": "P1 at 15 µg/mL, from vancomycin standard curve", "method": "as §1, §3"}, "MRSA isolate 2468 [7]": {"test_system": "MRSA isolate 2468", "experiment": "Killing kinetics", "type": "cell-based, Staphylococcus aureus", "conditions": "for killing half-time / rate constant of cell death within 24 h: linear regression", "method": "(§4) S. aureus TISTR 517 and MRSA isolate 2468 were cultured in CAMHB and standardized to obtain the cell number of 5 × 10^5 CFU/mL for initial treatment. […] The reactions were incubated at 37 °C, and then the total volume was spread on MH agar at specific time intervals (0–24 h). The plates were incubated at 37 °C for 24 h before colony count. […] The rate constant of cell death within 24 h and the killing half-time were calculated based on slope and linear regression relationship, respectively. Each experiment was performed in triplicate in 96-well plates. Significant differences (p-value < 0.05) were analyzed by two-way ANOVA and post hoc Tukey’s test for multiple comparisons between treated and non-treated samples."}, "S. aureus TISTR 517 [8]": {"test_system": "S. aureus TISTR 517", "experiment": "Killing kinetics", "type": "cell-based, Staphylococcus aureus", "conditions": "for killing half-time / rate constant of cell death within 24 h: linear regression; for time of eradication effect: strain not named in the sentence (tested bacteria)", "method": "as §4"}, "human erythrocytes": {"test_system": "human erythrocytes", "experiment": "Hemolysis", "type": "cell-based", "conditions": "highest concentration with hemolysis below 10% divided by MIC", "method": "Human blood (5 mL) from a healthy volunteer was collected in an EDTA tube. The erythrocytes were centrifuged at 700× g for 8 min and washed with PBS pH 7.4 three times. The erythrocytes were diluted with PBS pH 7.4 to reach a 0.5% v/v concentration. The suspension of erythrocytes (50 μL) was transferred to each well in a 96-well plate. The anti-MRSA peptide was dissolved and prepared by performing a 2-fold serial dilution with PBS pH 7.4 before the samples (50 μL) were added to the wells to achieve the final concentrations of 0.25–64 μg/mL. The reactions were incubated at 37 °C for 1 h, and the supernatant was collected by centrifugation at 1000× g for 10 min. The release of hemoglobin was monitored by measuring the absorbance at 540 nm. PBS pH 7.4 and 1% Triton X-100 were used as the negative and positive controls, respectively. The relative hemolysis was determined by normalizing the absorbance of the sample by that of the positive control. Each experiment was performed in three replications."}},
  "note": "Ends that are not written are not given here.",
  "data": [
    {"sequence": "VVVNVLVKVLPPPVV [Peptide P1]", "values": [
      {"measurement": "activity when incubated with proteolytic enzymes", "setting": "S. aureus TISTR 517 [1]", "result": "more than 90%"},
      {"measurement": "MBC", "setting": "MRSA isolate 1096", "result": 4, "unit": "µg/mL"},
      {"measurement": "MIC", "setting": "MRSA isolate 1096", "result": 2, "unit": "µg/mL"},
      {"measurement": "MIC", "setting": "[2]", "result": 1.27, "unit": "µM"},
      {"measurement": "MBC", "setting": "MRSA isolate 2468 [3]", "result": 4, "unit": "µg/mL"},
      {"measurement": "MIC", "setting": "MRSA isolate 2468 [3]", "result": 2, "unit": "µg/mL"},
      {"measurement": "MBC", "setting": "MRSA isolate 142", "result": 4, "unit": "µg/mL"},
      {"measurement": "MIC", "setting": "MRSA isolate 142", "result": 2, "unit": "µg/mL"},
      {"measurement": "MBC", "setting": "S. aureus TISTR 517 [4]", "result": 4, "unit": "µg/mL"},
      {"measurement": "MIC", "setting": "S. aureus TISTR 517 [4]", "result": 2, "unit": "µg/mL"},
      {"measurement": "vancomycin concentration of equivalent potency", "setting": "MRSA isolate 2468 [5]", "result": "85.97 to 109.05", "unit": "µg/mL"},
      {"measurement": "vancomycin concentration of equivalent potency", "setting": "S. aureus TISTR 517 [6]", "result": "76.29 to 87.36", "unit": "µg/mL"},
      {"measurement": "killing half-time", "setting": "MRSA isolate 2468 [7]; 1× MIC", "result": 47.75, "unit": "h"},
      {"measurement": "rate constant of cell death within 24 h", "setting": "MRSA isolate 2468 [7]; 1× MIC", "result": -0.06, "unit": "h⁻¹"},
      {"measurement": "killing half-time", "setting": "MRSA isolate 2468 [7]; 2× MIC", "result": 13.21, "unit": "h"},
      {"measurement": "rate constant of cell death within 24 h", "setting": "MRSA isolate 2468 [7]; 2× MIC", "result": -0.23, "unit": "h⁻¹"},
      {"measurement": "inhibition rate", "setting": "MRSA isolate 2468 [7]; 4× MIC, during 3–12 h", "result": 0.32, "unit": "h⁻¹"},
      {"measurement": "killing half-time", "setting": "MRSA isolate 2468 [7]; 4× MIC, 95% CI 5.67 to 18.47", "result": 9.78, "unit": "h"},
      {"measurement": "rate constant of cell death within 24 h", "setting": "MRSA isolate 2468 [7]; 4× MIC, 95% CI −0.17 to −0.36", "result": -0.27, "unit": "h⁻¹"},
      {"measurement": "inhibition rate", "setting": "MRSA isolate 2468 [7]; after 6 h of treatment, 1× MIC", "result": 0.06, "unit": "h⁻¹"},
      {"measurement": "inhibition rate", "setting": "MRSA isolate 2468 [7]; after 6 h of treatment, 2× MIC", "result": 0.24, "unit": "h⁻¹"},
      {"measurement": "reduction rate of viable cells", "setting": "MRSA isolate 2468 [7]; first 3 h", "result": 0.10, "unit": "h⁻¹"},
      {"measurement": "killing half-time", "setting": "S. aureus TISTR 517 [8]; 1× MIC", "result": 25.36, "unit": "h"},
      {"measurement": "rate constant of cell death within 24 h", "setting": "S. aureus TISTR 517 [8]; 1× MIC", "result": -0.11, "unit": "h⁻¹"},
      {"measurement": "killing half-time", "setting": "S. aureus TISTR 517 [8]; 2× MIC", "result": 11.08, "unit": "h"},
      {"measurement": "rate constant of cell death within 24 h", "setting": "S. aureus TISTR 517 [8]; 2× MIC", "result": -0.26, "unit": "h⁻¹"},
      {"measurement": "time of eradication effect", "setting": "S. aureus TISTR 517 [8]; 2× MIC", "result": 24, "unit": "h"},
      {"measurement": "reduction rate of viable cells", "setting": "S. aureus TISTR 517 [8]; 3-24 h, 1× MIC", "result": 0.12, "unit": "h⁻¹"},
      {"measurement": "reduction rate of viable cells", "setting": "S. aureus TISTR 517 [8]; 3-24 h, 2× MIC", "result": 0.23, "unit": "h⁻¹"},
      {"measurement": "reduction rate of viable cells", "setting": "S. aureus TISTR 517 [8]; 3-24 h, 4× MIC", "result": 0.31, "unit": "h⁻¹"},
      {"measurement": "killing half-time", "setting": "S. aureus TISTR 517 [8]; 4× MIC, 95% CI 5.35 to 20.12", "result": 9.80, "unit": "h"},
      {"measurement": "rate constant of cell death within 24 h", "setting": "S. aureus TISTR 517 [8]; 4× MIC, 95% CI −0.16 to −0.38", "result": -0.27, "unit": "h⁻¹"},
      {"measurement": "time of eradication effect", "setting": "S. aureus TISTR 517 [8]; 4× MIC", "result": 18, "unit": "h"},
      {"measurement": "reduction rate of viable cells", "setting": "S. aureus TISTR 517 [8]; first 3 h, all peptide concentrations (1×, 2×, 4× MIC)", "result": 0.14, "unit": "h⁻¹"},
      {"measurement": "therapeutic index of hemolysis (TIhemolysis)", "setting": "human erythrocytes", "result": 16}
    ]}
  ]
}
